Data set [1] concerns HepG2 cells (human hepatic cells). Put plainly: Counting of the number of living cells (CellTiter 96 Aqueous One) in HepG2. Particulars: 30 hours, measurement group/control group, DMSO control = 100. The data set is classed as cell-based. How it is done: HepG2 was cultured to 80% to 90% confluence in a 100 mm/Collagen-Coated Dish (trade name, manufactured by Iwaki Glass Works, Co.). The medium was removed from the above-noted dish with a pipette and then HepG2 was washed with 2 mL of 1×PBS. Then, 2 mL of trypsin-EDTA was added, the above-noted dish was rotated slowly so that the trypsin-EDTA spread over the entire cells, this trypsin-EDTA was removed with a pipette, and the dish was allowed to stand still for 15 minutes in a CO2 incubator (37° C., 5%). To this dish, 12 mL of a growth medium was added, followed by mixing by pipetting, and 1 mL of this mixture solution was dispensed in each well of Collagen-Coated Microplates 12Well/Flat Bottom (trade name, manufactured by Iwaki Glass Works, Co.). After the cells were checked using a microscope, the wells were cultured in a CO2 incubator (37° C., 5%) for one to two days. After checking that 80% to 90% confluence was achieved using the microscope, a medium replacement was carried out by removing the medium and adding 800 μL of a medium containing bergamottin. […] Using this collected medium, the number of living cells were counted, and the Western blotting and the ELISA measurement were carried out similarly to the above. From the result of the ELISA, the ratio of the VLDL secretion amount between the measurement group and the non-treated control group (measurement group/control group) was calculated for each sample.
The measurement was made using CellTiter 96 Aqueous One Solution Cell Proliferation Assay (trade name, manufactured by Promega Corporation). […] 100 μL of this mixture solution was dispensed to each of three wells of ELISA PLATE 96well (trade name, manufactured by Iwaki Glass Works, Co.), and the absorbance at 490 nm was measured. The measurement was made using wallac ARVOsx (trade name, PerkinElmer Life Sciences, PerkinElmer, Inc.), and the mode of measurement was Absorbance (490 nm, 1.0 S). The ratio of the number of living cells between the measurement group and the non-treated control group (measurement group/control group) was calculated for each sample.

The subject of a further data set is 3T3-L1 cells. Put plainly: mRNA expression of aP2 and adiponectin in differentiated 3T3-L1 adipocytes (Light Cycler). In kind it is cell-based, mouse. The settings on record: 7 days after differentiation induction, non-treatment control = 100, average ± standard error. How it is done: Next, culture preadipocytes 3T3-L1 were thawed, inoculated in a 100 mm dish and cultured until 3T3-L1 cells reached about 80% confluence. A single dish of 3T3-L1 that had reached about 80% confluence was subcultured to a single 6-well plate and further cultured until the 3T3-L1 cells reached confluence in the 6-well plate, and then the medium was replaced with the differentiation induction medium, followed by differentiation induction. 48 hours later, the medium was replaced with the differentiation promotion medium, and thereafter, the medium was replaced with the differentiation promotion medium every two days. 7 days after the initiation of the differentiation induction, mRNA was extracted using Sepasol-RNA I Super (trade name; manufactured by Nacalai Tesque, Inc.), and the mRNA expression amounts of 36B4, aP2 and adiponectin, which were indicators of an early period of adipocyte differentiation, were measured using Light Cycler (TM). Also, the medium 7 days after the differentiation induction was taken in an amount of 1 mL from each well, and the amount of adiponectin in the medium supernatant was measured using a mouse/rat adiponectin ELISA kit (manufactured by Otsuka Pharmaceutical Co., Ltd.).
The medium was removed from the above-described 6-well plate, 1 mL of Sepasol(R)-RNA I Super (manufactured by Nacalai Tesque, Inc.) was added to each well, and pipetting was repeated several times so as to disperse the cells. This solution was transferred to a 1.5 mL tube and allowed to stand for 5 minutes at room temperature, and then 200 μL of chloroform was added, stirred well with a vortex stirrer and allowed to stand for 3 minutes at room temperature. The solution was cooled to 4° C. and centrifuged at 12000×g for 15 minutes. While taking great care not to disturb an interface between a phenol layer (a lower layer, yellow) and a water layer (an upper layer, colorless), the water layer alone was transferred to another tube (with a capacity of 1.5 mL). At this time, care was taken not to take proteins floating between these layers. 500 μL of isopropanol was added to the tube and mixed and allowed to stand for 10 minutes at room temperature. The solution was cooled to 4° C. and centrifuged at 12000×g for 10 minutes, followed by removing about 1 mL of the supernatant. To this precipitate, 1 mL of 75% ethanol was added and stirred to suspend the precipitate sufficiently, and then cooled to 4° C. and centrifuged at 12000×g for 10 minutes, followed by removing the supernatant. The resultant precipitate (total RNA) was dried and then dissolved in 20 μL of nuclease free water, thus measuring the concentration of mRNA using NanoDrop (manufactured by SCRUM Inc.).
The extracted and measured mRNA solution was adjusted to have an mRNA concentration of 1 μg/μL. […]

Consider `CC(C)=CCC/C(C)=C/COc1c2ccoc2cc2oc(=O)ccc12` [Bergamottin, bergamottin], for which the “Number of living cells (%)” value in data set [1] (10 μM) stood at 99.6%; in data set [1] (20 μM), 97.2%; in data set [1] (50 μM), 99.8%. For the same molecule, the “Adiponectin mRNA expression amount (ratio to 36B4)” value is 189.5 ± 9.7 in the data set with 3T3-L1 cells (1 μM) and 227.2 ± 16.0 in the data set on 3T3-L1 cells (5 μM). Besides, the “aP2 mRNA expression amount (ratio to 36B4)” value with 3T3-L1 cells (1 μM) is 157.5 ± 7.3; in the data set on 3T3-L1 cells (5 μM), 194.6 ± 9.0.

The values are drawn from US8257755B2, “Metabolic syndrome-improving agent and medicine, supplement, functional food and food additive containing the same” (ARKRAY, Inc., priority 2005, dated 2012).
